Laboratory results from patent publication US7485631B2, “Phorboxazole compounds and methods of their preparation” (The Trustees of the University of Pennsylvania, priority 2005, dated 2009).
Like-named read-outs stand apart in the source and are kept apart here.

Experiments:
[1] = other bond, K2CO3/18-crown-6, toluene, 25.0 °C
[2] = test system: National Cancer Institute's (NCI) panel of 60 human tumor cell lines; settings: mean over the entire NCI 60 human tumor cell line panel; cited from earlier work
[3] = test system: human cancer cell lines BXP-3, MCF-3, F-268, NCl-H460, KM20L2, DU-145; test: Cancer growth inhibition, average over the six human cancer cell line panel; format: cell-based; settings: for GI50: Homo sapiens, average over six human cancer cell lines; for tumor cell growth inhibitory activity compared with (+)-phorboxazole A (in words): summary of the six cell line panel
Procedure: (§1) With (+)-phorboxazole A (XVIII) and the eight phorboxazole analogues in hand, biological evaluation against a diverse panel of human cancer cell lines was conducted in the laboratory of Professor George R. Pettit at the Cancer Research Institute of Arizona State University. Specifically, cancer growth inhibition efficacy was evaluated against the human cancer cell lines; BXP-3 (pancreatic), MCF-3 (breast), F-268 (CNS), NCl-H460 (non-small lung), KM20L2 (colon), and DU-145 (prostate) (Smith, et al. Org. Lett. 2005, 7, 4403; Smith, et al. Org. Lett. 2005, 8, 797).

KM20L2 (colon) = test: Cancer growth inhibition, colon cancer cell line; format: cell-based; settings: Homo sapiens, KM-20L2
Procedure: as §1

[4] = test system: NCl-H460 (non-small lung); test: Cancer growth inhibition, non-small lung cancer cell line; format: cell-based; settings: Homo sapiens
Procedure: as §1

F-268 (CNS) = test: Cancer growth inhibition, CNS cancer cell line; format: cell-based; settings: Homo sapiens
Procedure: as §1

BXP-3 (pancreatic) = test: Cancer growth inhibition, pancreatic cancer cell line; format: cell-based; settings: Homo sapiens
Procedure: as §1

MCF-3 (breast) = test: Cancer growth inhibition, breast cancer cell line; format: cell-based; settings: Homo sapiens
Procedure: as §1

Compound: C=C1C[C@@H]2C[C@@H]3CCO[C@@H](O3)c3coc(n3)/C=C/C[C@H]3O[C@@H](/C(C)=C/I)[C@H](C)[C@@H](OC(=O)/C=C\C[C@@H](C1)O2)[C@H]3C
- ring closure, yield of all isomers ([1]; from C=C1C[C@H](C[C@@H]2CCO[C@H](c3coc(/C=C/C[C@H]4O[C@@H](/C(C)=C/I)[C@H](C)[C@@H](OC(=O)CP(=O)(OCC(F)(F)F)OCC(F)(F)F)[C@H]4C)n3)O2)O[C@@H](CC=O)C1, 0.74 mM, 2.0 h): 86%

Compound: C=C1C[C@@H]2C[C@@H]3C[C@@H](O[Si](C)(C)C(C)(C)C)C[C@@H](O3)c3coc(n3)/C=C/C[C@H]3O[C@@H](/C(C)=C/I)[C@H](C)[C@@H](OC(=O)/C=C\C[C@@H](C1)O2)[C@H]3C
- ring closure, yield of all isomers ([1]; from C=C1C[C@H](C[C@@H]2C[C@@H](O[Si](C)(C)C(C)(C)C)C[C@H](c3coc(/C=C/C[C@H]4O[C@@H](/C(C)=C/I)[C@H](C)[C@@H](OC(=O)CP(=O)(OCC(F)(F)F)OCC(F)(F)F)[C@H]4C)n3)O2)O[C@@H](CC=O)C1, 0.706 mM, 3.0 h): 96%

Compound: C=C1C[C@@H]2C[C@H]3C[C@@H](O)C[C@H](O3)c3coc(n3)/C=C\C[C@H]3O[C@@H](/C(C)=C/c4coc(C[C@]5(O)C[C@H](OC)C[C@H]([C@H](O)/C=C(C)/C=C/[C@@H](C/C=C/Br)OC)O5)n4)[C@H](C)[C@@H](OC(=O)/C=C\C[C@@H](C1)O2)[C@H]3C [(+)-Phorboxazole B, Phorboxazole B]
- GI50 [2]: 1.58 nM

Compound: C=C1C[C@@H]2C[C@@H]3C[C@@H](O)C[C@@H](O3)c3coc(n3)/C=C/C[C@H]3O[C@@H](/C(C)=C/c4coc(C[C@]5(O)C[C@H](OC)C[C@H]([C@H](O)/C=C(C)/C=C/[C@@H](C/C=C/Br)OC)O5)n4)[C@H](C)[C@@H](OC(=O)/C=C\C[C@@H](C1)O2)[C@H]3C [XVIII, Phorboxazole A, reference compound]
- GI50 [3]: 5 nM
- GI50 [2]: 1.58 nM

Compound: C#CC[C@H](/C=C/C(C)=C/[C@@H](O)[C@H]1C[C@@H](OC)C[C@@](O)(Cc2nc(/C=C(\C)[C@@H]3O[C@@H]4C/C=C/c5nc(co5)[C@H]5C[C@H](O)C[C@@H](C[C@H]6CC(=C)C[C@H](C/C=C/C(=O)O[C@@H]([C@H]4C)[C@H]3C)O6)O5)co2)O1)OC [XVIIaE, E-C(2-3)-C(45-46)-Alkynyl-Phorboxazole]
- GI50 [3]: 281 nM

Compound: C#CC[C@H](/C=C/C(C)=C/[C@@H](O)[C@H]1C[C@@H](OC)C[C@@](O)(Cc2nc(/C=C(\C)[C@@H]3O[C@@H]4C/C=C/c5nc(co5)[C@H]5C[C@H](O)C[C@@H](C[C@H]6CC(=C)C[C@H](C/C=C\C(=O)O[C@@H]([C@H]4C)[C@H]3C)O6)O5)co2)O1)OC [XVIIaZ, C(45-46)-Alkynyl-Phorboxazole]
- GI50 [3]: 5.2 nM
- tumor cell growth inhibitory activity compared with (+)-phorboxazole A (in words) [3]: activity comparable to that of (+)-phorboxazole A

Compound: C=C1C[C@@H]2C[C@@H]3C[C@@H](O)C[C@@H](O3)c3coc(n3)/C=C/C[C@H]3O[C@@H](/C(C)=C/c4coc(C[C@]5(O)C[C@H](OC)C[C@H]([C@H](O)/C=C(C)/C=C/[C@@H](CCC)OC)O5)n4)[C@H](C)[C@@H](OC(=O)/C=C\C[C@@H](C1)O2)[C@H]3C [XVIIb, C(45-46)-Alkyl-Phorboxazole]
- GI50 [3]: 3.1 nM
- tumor cell growth inhibitory activity compared with (+)-phorboxazole A (in words) [3]: activity comparable to that of (+)-phorboxazole A
- GI50 (KM20L2 (colon)): 1.3 nM
- GI50 [4]: 1.6 nM

Compound: C=CC[C@H](/C=C/C(C)=C/[C@@H](O)[C@H]1C[C@@H](OC)C[C@@](O)(Cc2nc(/C=C(\C)[C@@H]3O[C@@H]4C/C=C/c5nc(co5)[C@H]5C[C@H](O)C[C@@H](C[C@H]6CC(=C)C[C@H](C/C=C\C(=O)O[C@@H]([C@H]4C)[C@H]3C)O6)O5)co2)O1)OC [XVIIc, C(45-46)-Alkenyl-Phorboxazole]
- GI50 [3]: 4.1 nM
- tumor cell growth inhibitory activity compared with (+)-phorboxazole A (in words) [3]: activity comparable to that of (+)-phorboxazole A

Compound: C=C1C[C@@H]2C[C@@H]3C[C@@H](O)C[C@@H](O3)c3coc(n3)/C=C/C[C@H]3O[C@@H](/C(C)=C/c4coc(C[C@]5(O)C[C@H](OC)C[C@H]([C@H](O)/C=C(C)/C=C/[C@@H](C/C=C/Cl)OC)O5)n4)[C@H](C)[C@@H](OC(=O)/C=C\C[C@@H](C1)O2)[C@H]3C [XVIId, C(45-46)-E-Chloroalkenyl-Phorboxazole]
- tumor cell growth inhibitory activity compared with (+)-phorboxazole A (in words) [3]: activity greater than that of (+)-phorboxazole A
- GI50 (F-268 (CNS)): 0.49 nM
- GI50 (KM20L2 (colon)): 0.38 nM
- GI50 (BXP-3 (pancreatic)): 0.62 nM
- GI50 [4]: 0.64 nM

Compound: C=CC[C@H](/C=C/C(C)=C/[C@@H](O)[C@H]1C[C@@H](OC)C[C@](Cc2nc(/C=C(\C)[C@@H]3O[C@H](CCO)[C@H](C)[C@H](OCc4ccc(OC)c(OC)c4)[C@H]3C)co2)(OC)O1)OC [XVIIe, C(45-46)-Alkenyl-C(22-26)-Central Tetrahydropyran Phorboxazole]
- activity across the entire cell line panel (in words) ([3]; six human cancer cell lines): inactive

Compound: C#CC[C@H](/C=C/C(C)=C/[C@@H](O)[C@H]1C[C@@H](OC)C[C@@](O)(Cc2nc(/C=C(\C)[C@@H]3O[C@@H]4C/C=C/c5nc(co5)[C@H]5OCC[C@@H](C[C@H]6CC(=C)C[C@H](C/C=C/C(=O)O[C@@H]([C@H]4C)[C@H]3C)O6)O5)co2)O1)OC [XVIIfE, E-C(2-3) C(11-15)-Acetal Alkynyl Phorboxazole]
- GI50 [3]: 944 nM

Compound: C#CC[C@H](/C=C/C(C)=C/[C@@H](O)[C@H]1C[C@@H](OC)C[C@@](O)(Cc2nc(/C=C(\C)[C@@H]3O[C@@H]4C/C=C/c5nc(co5)[C@H]5OCC[C@@H](C[C@H]6CC(=C)C[C@H](C/C=C\C(=O)O[C@@H]([C@H]4C)[C@H]3C)O6)O5)co2)O1)OC [XVIIfZ, Z-C(2-3) C(11-15)-Acetal Alkynyl Phorboxazole]
- GI50 [3]: 34.6 nM
- GI50 (KM20L2 (colon)): 11.8 nM
- GI50 (MCF-3 (breast)): 18.3 nM
